Assay results from patent US10195222B2, “Acyclic nucleoside phosphonate diesters” (The Regents of the University of California, priority 2013, dated 2019).
Like-named read-outs stand apart in the source and are kept apart here.

Tests used:
[1] = Cell proliferation assay (neutral red), normal human fibroblasts; format: cell-based; conditions: read-out: Cytotoxicity, CC50, Normal cells Human fibroblasts
Procedure: (§1) Method Cell Proliferation Assays: The various human fibroblast and human cervical cancer cell lines were plated at 5×10^3 per well in 96 well plates using media with 10% fetal bovine serum added and incubated for about 24 hr. Ten mM stock solutions of the compounds were prepared in 10% DMSO in distilled water. Serial drug dilutions were made in media containing 2% FBS to give a final […] concentration, added to the wells, and incubated at 37° C. for 5 days. Cytotoxicity was measured by neutral red reduction, as known in the art.

[2] = test system: Me180 (68) cervical cancer cells; test: Cell proliferation assay (neutral red), Me180 cervical cancer cells; format: cell-based; conditions: Homo sapiens, ME-180, 120 h, read-out: Cytotoxicity, CC50, Cervical Cancer Cells Me180 (68)
Procedure: as §1

[3] = test system: HeLa (18) cervical cancer cells; test: Cell proliferation assay (neutral red), HeLa cervical cancer cells; format: cell-based; conditions: Homo sapiens, 120 h, read-out: Cytotoxicity, CC50, Cervical Cancer Cells HeLa (18)
Procedure: as §1

[4] = test system: Caski (16) cervical cancer cells; test: Cell proliferation assay (neutral red), Caski cervical cancer cells; format: cell-based; conditions: Homo sapiens, Ca-Ski, 120 h, read-out: Cytotoxicity, CC50, Cervical Cancer Cells Caski (16)
Procedure: as §1

HPV-11 = HPV-11 antiviral assay, DNA PCR in HEK 293 cells; format: cell-based; conditions: for Selectivity index: HPV-11 in HEK 293 cells
Source text: (§2) Assay. DNA PCR in HEK 293 cells infected with HPV-11, EC50, effective concentration 50%; CC50, 50% reduction of cell proliferation. DNA PCR by the methods reported by Chiang et al, Proc Natl Acad Sci USA. 1992. 89(13):5799-803 and Taylor and Morgan, Virology. 2003. 10; 315(1):103-9.

[5] = Cytotoxicity (reduction of cell proliferation) in HEK 293 cells; format: cell-based; conditions: human, read-out: CC50 (50% reduction of cell proliferation)
Source text: as §2

HSV-2 = HSV-2 plaque reduction assay in HFF cells; format: cell-based; conditions: for Selectivity index: HSV-2 in HFF cells; for EC50: plaque reduction, 3 days, read-out: EC50 (HSV-2 antiviral activity in HFF cells)
Procedure: Antiviral assay. […] Plates were allowed to incubate for 37° C. for 1 hour. […] Plates were incubated at 37° C. for 3 days and monolayers were stained with crystal violet. Plaques were counted and results are expressed as μM concentration of drug which reduced plaques by 50% versus control plates without drug. (Richards et al, Antiviral Res. 2:27, 1982)

[6] = Cytotoxicity in HFF cells (HSV-2 table); conditions: human, HFF cells
HIV-1LAI = test: HIV antiviral assay, p24 reduction in MT-2 cells; conditions: for Selectivity index: CC50/EC50, HIV-1 in MT-2 cells
HFF cells = test: Cytotoxicity in HFF cells (HSV-2 table); conditions: read-out: CC50 (HFF cells); Table 10
[7] = test system: MT-2 cells (human T cell leukemia); test: Cytotoxicity in MT-2 cells (flow cytometry, propidium iodide); format: cell-based; conditions: 72 hrs
Procedure: (§3) Method of cytotoxicity determination. MT-2 cells were incubated with drug for 72 hrs and harvested. Flow count beads (Beckman Coulter, Miami, Fla.) were added to the cell suspension followed by propidium iodide staining and analysis using flow cytometer and the 50% cytotoxic concentration (CC50) was calculated from the cell counts and viability.
as §3, with “Method” for “Method of”

[8] = Human alphaherpesvirus 2, HFF, 72 h

| Structure (SMILES) | Selectivity index (HPV-11) | CC50 [5] [nM] | Selectivity index (HSV-2) | EC50 (HSV-2; [8]) [nM] | CC50 [6] [nM] | Selectivity index (HIV-1LAI) | also measured |
| --- | --- | --- | --- | --- | --- | --- | --- |
| CCCCCCCCCCCCCCCCCCOCCOP(=O)(COCCn1cnc2c(=O)[nH]c(N)nc21)OCc1ccccc1 (racemic) [Bn-ODE-PMEG, benzyl octadecyloxyethyl 9-[2-(phosphonomethoxy)ethyl]guanine] | >151 | > 100000 | >10 | < 1000 |  |  | CC50 at 5 days [1]: 15000 ± 1500 nM; CC50 [2]: 31 ± 20 nM; CC50 [3]: 310 ± 110 nM; CC50 [4]: 15 ± 7 nM; EC50 (HPV-11; HEK293, DNA PCR in HEK 293 cells infected with HPV-11): 660 nM |
| CCCCCCCCCCCCCCCCCCOCCOP(=O)(CO[C@H](CO)Cn1cnc2c(N)ncnc21)OCc1ccccc1 (stereo partly drawn) [Bn-ODE-(S)-HPMPA, benzyl octadecyloxyethyl 9-(S)-[3-hydroxy-2-(phosphonomethoxy)propyl]adenine] | >370 |  | >52 | < 100 | 5200 | 17.7 | CC50 at 5 days ([1]; normal human fibroblasts (HFF)): 5200 ± 3900 nM; CC50 ([2]; 5 days, neutral red): 210 ± 70 nM |
| CCCCCCCCCCCCCCCCCCOCCOP(=O)(CO[C@H](CO)Cn1ccc(N)nc1=O)OCc1ccccc1 (stereo partly drawn) [Bn-ODE-(S)-HPMPC, benzyl octadecyloxyethyl 1-(S)-[(3-hydroxy-2-phosphonomethoxy)propyl]cytosine] |  |  | >48 | < 100 | 4800 | 6.7 |  |
| CCCCCCCCCCCCCCCCCCOCCOP(=O)(COCCn1cnc2c(N)ncnc21)OCc1ccccc1 (centres unmarked) [Bn-ODE-PMEA, benzyl octadecyloxyethyl 9-[2-(phosphonomethoxy)ethyl]adenine] |  | > 100000 |  |  |  |  |  |
| CCCCCCCCCCCCCCCCCCOCCOP(=O)(COCCn1cnc2c(=O)[nH]c(N)nc21)OCc1ccccc1 (centres unmarked) [Bn-ODE-PMEG fast, benzyl octadecyloxyethyl 9-(2-phosphonomethoxyethyl)guanine] |  |  |  |  |  |  | EC50 (HSV-2): < 100 nM; CC50 (HFF cells): > 4000 nM |
| CCCCCCCCCCCCCCCCCCOCCOP(=O)(COCCn1cnc2c(=O)[nH]c(N)nc21)OCc1ccccc1 (centres unmarked) [Bn-ODE-PMEG slow, benzyl octadecyloxyethyl 9-(2-phosphonomethoxyethyl)guanine] |  |  |  |  |  |  | CC50 ([7]; Table 7, read-out: CC50, 50% Cytotoxic concentration, MT2 cells T cell leukemia): < 10 nM; CC50 ([7]; Table 8, read-out: CC50 (MT-2 cells)): < 10 nM; EC50 (HIV-1LAI; read-out: EC50 (HIV antiviral activity in MT-2 cells), p24 reduction, four days after infection): < 0.01 nM |
